From US10603319B2, “Pyrimidine derivatives and their use in treating or preventing a respiratory syncytial virus infection” (REVIRAL LIMITED, priority 2016, dated 2020)

Columns and labels:
[1] = system: RSV A2 VR-1540; test: Plaque Reduction Assay 2 (HEp-2 cells, virospot count); assay type: cell-based; settings: human respiratory syncytial virus, 24 h; RSV A2, HEp-2 cells, 1 day
Source text: Plaque Reduction Assay 2:
This RSV plaque reduction assay is an infectivity assay which allows quantification of the number of infectious units in a distinct foci of RSV infection. This is indicated by zones of viral antigen detected by specific antibody staining within a monolayer of otherwise healthy tissue culture cells. As each plaque originates from a single infectious virus particle an accurate calculation of the anti-viral effect can be obtained by counting plaques in the presence and absence of an anti-viral compound. HEp-2 cells (ATCC, CCL23) were passaged in flasks and seeded in 96-well plates in DMEM containing antibiotics and supplemented with 10% FBS. During inoculation and subsequent incubation, cells were cultured in DMEM containing 3% FBS. 100 plaque forming unit (PFU)/well of RSV (RSV A2 VR-1540) was mixed with ten serial dilutions of compound. Subsequently, 100 μL of the virus/compound mixtures was added to confluent HEp-2 cell monolayers. The cells and virus/compound mixtures were incubated at 35° C. in a humidified 5% CO2 incubator for 1 day.
Cells were washed twice with PBS before adding 50% v/v EtOH/MeOH, and then stored at −20° C. On the day of the staining, fixative was first removed from the plates. Plates were washed 3× with PBS. A pre-titrated amount of the primary antibody was added in 60 μL PBS/2% milk powder, and plates incubated for 1 h at rt. The plates were washed 3× with PBS/0.05% Tween20 before addition of goat anti-mouse horse radish peroxidase in 60 μL PBS/2% milk powder, and incubated for 1 h at rt. Following three wash steps with PBS/0.05% Tween20, 60 μL ready-to-use TrueBlue was added and plates were incubated at rt for 10-15 min before adding MilliQ water. Plates were washed once with water, incubated for 30-60 min and after removal of water, air-dried in the dark.
Plates were scanned and analyzed using the Immunospot S6 UV analyzer, which is equipped with BioSpot analysis software for counting immunostained plaques (virospots). Plaque counts were used to calculate % infection relative to the mean of the spot count (SC) in the virus control wells for RSV. IC50/IC90 values were calculated as 50% or 90% reduction in signal, respectively, by interpolation of inhibition curves fitted with a 4-parameter nonlinear regression with a variable slope in GraphPad 5.0 (Prism).

[2] = molecular target: T1, RSV A2_F (Human respiratory syncytial virus A, UniProt P03420); test: RSV fusion assay (luciferase reporter, HEK 293T/17 cells transfected with A2_F); assay type: cell-based; settings: 24 hr
T1 construct: expressed in transfected cells; host or cells: HEK 293T/17
Procedure: HEK 293T/17 cells were cultured in T75 culture flasks in Dulbecco's medium (DMEM) containing 10% FBS and 1× Penicillin-Streptomycin (Pen/Strep) and warmed to 37° C. prior to use. The cells were passaged by first washing briefly with 3 ml phosphate buffered saline (PBS) followed by a 4 min incubation with […] at 37° C. 7 ml media was then added to the flask and the cells dispersed via pipetting (×3) against the bottom of the flask. Two further T75 flasks were each seeded with 2×10^6 cells in 15 ml fresh media.
Cells were seeded on the T75 plates at the same density as on the 6-well plates the area of a T75 flask and one 1.75 cm radius well from a 6-well plate were compared. 7.79×2 ml of 3×10^5 cells ml^−1 was used to seed a single T75 flask.
HEK cells were removed from a T75 flask as described above. The cells were counted and diluted to 3×10^5 cells/ml in fresh media. Two T75 flasks were each seeded with 15.58 ml diluted cells.
The plasmid DNA (for pFR-Luc and pcDNA3.1_Gal4/NFκB) to be transfected into the HEK cells was first prepared in serum free media (DMEM+Pen/Strep) containing the transfection reagent Fugene 6 (Promega). Transfections were set up as follows (Luc=pFR_Luc, Gal4=pcDNA3.1+_Gal4/NFκB, A2_F=pcDNA3.1+_A2_F)
Serum free media was placed in a 1.5 ml eppendorf tube then the fugene 6 was added into the media. The tube was vortexed for 1 s before being incubated at RT for 5 min. The plasmid DNA was then added to the tube, vortexed for 1 s, then incubated at RT for 15 min
The transfection reagents were then added to the appropriate T75 flask by tipping the flask on end and adding the reagents directly to the media already in the flask. The flask was then tipped on its back so the media could be mixed thoroughly whilst not disturbing the cells before placing the flask the right way up and incubating overnight at 37° C. and 5% CO2.
Compounds were diluted (in a polypropylene round-bottomed 96 well plate) 1:3 in a twelve point dilution curve to give top [final] of either 3.3 μM, 1 μM, 500 nM 200 nM or 100 nM. The Control compound was always run at a concentration of 100 nM.
The cells were then counted and diluted to 4×10^5 cells/ml in fresh media. 50 μl of transfection population 1 cells were added to all wells of the assay plates. 100 μl diluted compound (2 rows per compound), standard curve (one row) and controls (100 nM RV (100% inhibition, four wells), DMSO (0% inhibition, eight wells)) were added to the appropriate wells. 50 μl of the diluted (4×10^5 cells/ml) transfection population 2 cells when then added to all wells.
The plates were then incubated for 24 hr at 37° C. and 5% CO2
Buffers were prepared for the luciferase assay (20 mM tricine, 10 mM MgSO4, 1 mM EDTA, 10 mM DTT) and lysis (25 mM tris-phosphate, 8 mM MgCl2, 1 mM DTT, 1% Triton X-100, 15% glycerol) and stored at −20° C.
Luminescence was measured as described:
Media was discarded into Virkon and the plates washed with 100 ul PBS per well. 20 ul/well of lysis buffer was added to each well and incubated shaking for 5 min at RT. Luciferin was added to LAAB at a dilution of 1:50 to give a working luciferin buffer. 100 μl working luciferin buffer was added to each well and luminescence was measured immediately. […]

[3] = Fusion activity IC50 μM, HEK 293T/17 cells
[4] = Fusion activity PIC50, HEK 293T/17 cells

T1 sequence (P03420 137-574): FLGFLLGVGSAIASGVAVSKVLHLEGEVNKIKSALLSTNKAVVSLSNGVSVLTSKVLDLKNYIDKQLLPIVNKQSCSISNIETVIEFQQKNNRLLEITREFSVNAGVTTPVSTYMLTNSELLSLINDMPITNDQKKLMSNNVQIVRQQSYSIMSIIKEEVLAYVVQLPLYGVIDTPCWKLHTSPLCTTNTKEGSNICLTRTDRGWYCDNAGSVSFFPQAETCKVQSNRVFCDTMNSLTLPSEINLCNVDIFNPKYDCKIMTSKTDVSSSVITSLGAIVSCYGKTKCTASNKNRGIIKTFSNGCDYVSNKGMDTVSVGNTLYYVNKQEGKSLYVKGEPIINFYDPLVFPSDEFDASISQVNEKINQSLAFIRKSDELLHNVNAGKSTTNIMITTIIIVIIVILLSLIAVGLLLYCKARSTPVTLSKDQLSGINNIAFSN
T1 sequence (P03420 26-109): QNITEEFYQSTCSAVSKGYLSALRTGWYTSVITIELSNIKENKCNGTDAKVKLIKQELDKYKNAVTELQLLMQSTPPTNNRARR

NCCNc1ncc(CN2C(=O)C3(CC3)c3ccc(F)cc32)c(NCCCCO)n1 [Compound 25, 1′-({2-[(2-Aminoethyl)amino]-4-[(4-hydroxybutyl)amino]pyrimidin-5-yl}methyl)-6′-fluoro-1′,2′-dihydrospiro[cyclopropane-1,3′-indole]-2′-one]
IC50 [1]: 0.049 µM | IC50 [2, 3]: 0.212 µM

NC1CCN(c2ncc(CN3C(=O)C4(CC4)c4ccc(F)cc43)c(OCCCF)n2)C1 (centres unmarked) [Compound 22, 1′-{[2-(3-Aminopyrrolidin-1-yl)-4-(3-fluoropropoxy)pyrimidin-5-yl]methyl}-6′-fluoro-1′,2′-dihydrospiro[cyclopropane-1,3′-indole]-2′-one]
IC50 [2, 3]: 0.951 µM

NC1CCN(c2ncc(CN3C(=O)C4(CC4)c4ccc(F)cc43)c(SCCCCO)n2)C1 (centres unmarked) [Compound 16, 1′-{[2-(3-Aminopyrrolidin-1-yl)-4-[(4-hydroxybutyl)sulfanyl]pyrimidin-5-yl]methyl}-6′-fluoro-1′,2′-dihydrospiro[cyclopropane-1,3′-indole]-2′-one]
IC50 [2, 3]: 2.79 µM | IC50 [2, 4]: 2.75 µM

NC1CCN(c2ncc(CN3C(=O)C4(CC4)c4ccc(F)cc43)c(NCCCCO)n2)CC1 [Compound 24, 1′-{[2-(4-Aminopiperidin-1-yl)-4-[(4-hydroxybutyl)amino]pyrimidin-5-yl]methyl}-6′-fluoro-1′,2′-dihydrospiro[cyclopropane-1,3′-indole]-2′-one]
IC50 [2, 3]: 0.695 µM

NC1CCN(c2ncc(CN3C(=O)C4(CC4)c4ccc(F)cc43)c(N3CCOCC3)n2)C1 (centres unmarked) [Compound 9, 1′-((2-(3-Aminopyrrolidin-1-yl)-4-morpholinopyrimidin-5-yl)methyl)-6′-fluorospiro[cyclopropane-1,3′-indolin]-2′-one]
IC50 [2, 3]: 3.66 µM

NC1CCN(c2nc(NCCCCO)ncc2CN2C(=O)C3(CC3)c3ccc(F)cc32)C1 (centres unmarked) [Compound 12, 1′-((4-(3-Aminopyrrolidin-1-yl)-2-((4-hydroxybutyl)amino)pyrimidin-5-yl)methyl)-6′-fluorospiro[cyclopropane-1,3′-indolin]-2′-one]
IC50 [2, 3]: 4.78 µM

CS(=O)(=O)CCNc1nc(N2CCC(N)C2)ncc1CN1C(=O)C2(CC2)c2ccc(F)cc21 (centres unmarked) [Compound 18, 1′-{[2-(3-Aminopyrrolidin-1-yl)-4-[(2-methanesulfonylethyl)amino]pyrimidin-5-yl]methyl}-6′-fluoro-1′,2′-dihydrospiro[cyclopropane-1,3′-indole]-2′-one]
IC50 [2, 3]: 0.885 µM

CCNc1nc(N2CCC(N)C2)ncc1CN1C(=O)C2(CC2)c2ccc(F)cc21 (centres unmarked) [Compound 29, 1′-{[2-(3-Aminopyrrolidin-1-yl)-4-(ethylamino)pyrimidin-5-yl]methyl}-6′-fluoro-1′,2′-dihydrospiro[cyclopropane-1,3′-indole]-2′-one]
IC50 [1]: 0.74 µM | IC50 [2, 3]: 1.17 µM

CC(C)CNc1nc(N2CCC(CN)CC2)ncc1CN1C(=O)C2(CC2)c2ccc(F)cc21 [Compound 6]
IC50 [2, 3]: 5.22 µM

NC1CCN(c2ncc(CN3C(=O)C4(CCC4)c4ccc(F)cc43)c(N[C@H]3CC[C@H](O)CC3)n2)C1 (some centres unmarked) [Compound 20, 1′-{[2-(3-Aminopyrrolidin-1-yl)-4-[(4-hydroxycyclohexyl)amino]pyrimidin-5-yl]methyl}-6′-fluoro-1′,2′-dihydrospiro[cyclobutane-1,3′-indole]-2′-one]
IC50 [1]: 0.116 µM | IC50 [2, 3]: 1.95 µM

NC1CCN(c2ncc(CN3C(=O)C4(CC4)c4ccc(F)cc43)c(NCC3CCOCC3)n2)C1 (centres unmarked) [Compound 23, 1′-{[2-(3-Aminopyrrolidin-1-yl)-4-{[(oxan-4-yl)methyl]amino}pyrimidin-5-yl]methyl}-6′-fluoro-1′,2′-dihydrospiro[cyclopropane-1,3′-indole]-2′-one]
IC50 [2, 3]: 0.451 µM

COCCCNc1nc(N2CCC(N)C2)ncc1CN1C(=O)C2(CC2)c2ccc(F)cc21 (centres unmarked) [Compound 11, 1′-((2-(3-Aminopyrrolidin-1-yl)-4-((3-methoxypropyl)amino)pyrimidin-5-yl)methyl)-6′-fluorospiro[cyclopropane-1,3′-indolin]-2′-one]
IC50 [2, 3]: 0.424 µM

CC(C)CCNc1nc(N2CCCC2)ncc1CN1C(=O)C2(CC2)c2ccc(F)cc21 [Compound 7, 6′-Fluoro-1′-((4-(isopentylamino)-2-(pyrrolidin-1-yl)pyrimidin-5-yl)methyl)spiro[cyclopropane-1,3′-indolin]-2′-one]
IC50 [2, 3]: 1.99 µM

NC1CCN(c2ncc(CN3C(=O)C4(CC4)c4ccc(F)cc43)c(C#CCCCO)n2)C1 (centres unmarked) [Compound 21, 1′-{[2-(3-Aminopyrrolidin-1-yl)-4-(5-hydroxypent-1-yn-1-yl)pyrimidin-5-yl]methyl}-6′-fluoro-1′,2′-dihydrospiro[cyclopropane-1,3′-indole]-2′-one]
IC50 [2, 4]: 25.1 µM

CC(C)CNc1nc(N2CCOCC2)ncc1CN1C(=O)C2(CC2)c2ccc(F)cc21 [Compound 8, 6′-Fluoro-1′-((4-(isobutylamino)-2-morpholinopyrimidin-5-yl)methyl)spiro[cyclopropane-1,3′-indolin]-2′-one]
IC50 [2, 3]: 8.53 µM

NC1CCN(c2ncc(CN3C(=O)C4(CC4)c4ccc(F)cc43)c(NCCCCCO)n2)C1 (centres unmarked) [Compound 19, 1′-{[2-(3-Aminopyrrolidin-1-yl)-4-[(5-hydroxypentyl)amino]pyrimidin-5-yl]methyl}-6′-fluoro-1′,2′-dihydrospiro[cyclopropane-1,3′-indole]-2′-one]
IC50 [2, 3]: 0.362 µM

CS(=O)(=O)N1CCN(c2nc(N3CCC(N)C3)ncc2CN2C(=O)C3(CC3)c3ccc(F)cc32)CC1 (centres unmarked) [Compound 14, 1′-{[2-(3-Aminopyrrolidin-1-yl)-4-(4-methanesulfonylpiperazin-1-yl)pyrimidin-5-yl]methyl}-6′-fluoro-1′,2′ dihydrospiro[cyclopropane-1,3′-indole]-2′-one]
IC50 [2, 3]: 1.2 µM

CC(=O)N1CCN(c2nc(N3CCC(N)C3)ncc2CN2C(=O)C3(CC3)c3ccc(F)cc32)CC1 (centres unmarked) [Compound 17, 1′-{[4-(4-Acetylpiperazin-1-yl)-2-(3-aminopyrrolidin-1-yl)pyrimidin-5-yl]methyl}-6′-fluoro-1′,2′-dihydrospiro[cyclopropane-1,3′-indole]-2′-one]
IC50 [2, 3]: 5.46 µM

NC1CCN(c2ncc(CN3C(=O)C4(CC4)c4ccc(F)cc43)c(NCCN3CCOCC3)n2)C1 (centres unmarked) [Compound 3, 1′-((2-(3-Aminopyrrolidin-1-yl)-4-((2-morpholinoethyl)amino)pyrimidin-5-yl)methyl)-6′-fluorospiro[cyclopropane-1,3′-indolin]-2′-one]
IC50 [2, 3]: 4.18 µM
